{"source": "ChEMBL document CHEMBL5550091", "about": "(2024)", "key": {"[1]": {"experiment": "Inhibition of recombinant N-terminal deca-His/SUMO tagged RTA (1 to 267 residues) (unknown origin) expressed in Escherichia coli BL21 (DE3) mediated ribosome depurination activity assessed as reduction in ribosomal RNA depurination preincubated with compound for 5 mins followed by addition of rat liver ribosomes and measured after 5 mins by qRT-PCR analysis", "type": "subcellular"}, "[2]": {"experiment": "Displacement of BODIPY TMR-X-labeled P11 peptide from recombinant N-terminal deca-His/SUMO tagged RTA (1 to 267 residues) (unknown origin) expressed in Escherichia coli BL21 (DE3) assessed as inhibition constant incubated for 30 mins by competition binding based fluorescence polarization assay"}, "[3]": {"experiment": "Displacement of BODIPY TMR-X-labeled P11 peptide from recombinant N-terminal deca-His/SUMO tagged RTA (1 to 267 residues) (unknown origin) expressed in Escherichia coli BL21 (DE3) incubated for 30 mins by competition binding based fluorescence polarization assay"}, "cells [4]": {"experiment": "cells", "type": "cell-based", "conditions": "Vero, 2 h"}, "cells [5]": {"experiment": "cells", "type": "cell-based", "conditions": "A549, 2 h"}, "[6]": {"experiment": "Inhibition of STX2A1 (unknown origin) mediated ribosomal depurination activity assessed as reduction in ribosomal RNA depurination preincubated with compound for 5 mins followed by addition of rat liver ribosomes and measured after 5 mins by qRT-PCR analysis", "type": "subcellular, Ribosome"}, "[7]": {"experiment": "Inhibition of recombinant N-terminal deca-His/SUMO tagged RTA (1 to 267 residues) (unknown origin) expressed in Escherichia coli BL21 (DE3) mediated ribosome depurination activity assessed as maximal inhibition of cellular ribosomal RNA depurination preincubated with compound for 5 mins followed by addition of rat liver ribosomes and measured after 5 mins by qRT-PCR analysis relative to control", "type": "subcellular", "conditions": "time 10.0 min"}}, "note": "Activity calls are given as the source filed them. No cut-off for these calls is given here.", "data": [{"compound": "O=C(O)c1ccc(-c2ccccc2)s1", "values": [{"measurement": "IC50", "setting": "[1]", "result": 408, "unit": "µM"}, {"measurement": "Ki", "setting": "[2]", "result": 58, "unit": "µM"}, {"measurement": "IC50", "setting": "[3]", "result": 224, "unit": "µM"}]}, {"compound": "NC(=O)c1cccc2c1-c1ccccc1C2=O", "values": [{"measurement": "Activity", "setting": "[3]", "result": "inactive"}]}, {"compound": "O=C(O)c1cc2c(s1)-c1cc(Cl)ccc1SC2", "values": [{"measurement": "Ki", "setting": "[2]", "result": 15, "unit": "µM"}, {"measurement": "IC50", "setting": "[3]", "result": 59, "unit": "µM"}]}, {"compound": "CC1(C)Cc2cc(C(=O)O)sc2-c2ccccc21", "values": [{"measurement": "IC50", "setting": "[1]", "result": 23, "unit": "µM"}, {"measurement": "EC50", "setting": "cells [4]", "result": 29, "unit": "µM"}, {"measurement": "EC50", "setting": "cells [5]", "result": 92, "unit": "µM"}, {"measurement": "IC50", "setting": "[6]", "result": 83, "unit": "µM"}, {"measurement": "Imax", "setting": "[7]", "result": 112, "unit": "%"}]}, {"compound": "Cc1cccc(C)c1-c1ccc(C(=O)O)s1", "values": [{"measurement": "IC50", "setting": "[1]", "result": 45, "unit": "µM"}, {"measurement": "IC50", "setting": "[3]", "result": 31, "unit": "µM"}, {"measurement": "Imax", "setting": "[7]", "result": 102, "unit": "%"}]}, {"compound": "O=C(O)c1cc2c(s1)-c1ccccc1CC2", "values": [{"measurement": "Imax", "setting": "[7]", "result": 100, "unit": "%"}]}, {"compound": "H-SDDDMGFGLFD-OH", "values": [{"measurement": "IC50", "setting": "[1]", "result": 31, "unit": "µM"}, {"measurement": "Ki", "setting": "[2]", "result": 1, "unit": "µM"}, {"measurement": "IC50", "setting": "[3]", "result": 4, "unit": "µM"}]}, {"compound": "H-RGWGHPSGYS-OH", "values": [{"measurement": "Activity", "setting": "[3]", "result": "inactive"}]}, {"compound": "O=C(O)c1cc2c(s1)-c1ccc(F)cc1CC2", "values": [{"measurement": "IC50", "setting": "[1]", "result": 32, "unit": "µM"}, {"measurement": "IC50", "setting": "[3]", "result": 17, "unit": "µM"}, {"measurement": "Imax", "setting": "[7]", "result": 104, "unit": "%"}]}]}
